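48-hour exposure; five concentrations; linearly interpolated endpoints. At the GI50, growth is halved. TGI marks complete inhibition of growth.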
Tests used:
Assay in all cases: DTP human tumour cell line panel, 48 h
CAKI-1 renal = test system: CAKI-1 renal
COLO 205 colon = test system: COLO 205 colon
HOP-62 NSCLC = test system: HOP-62 NSCLC
IGROV1 ovarian = test system: IGROV1 ovarian
MALME-3M melanoma = test system: MALME-3M melanoma
OVCAR-5 ovarian = test system: OVCAR-5 ovarian
SN12C renal = test system: SN12C renal
TK-10 renal = test system: TK-10 renal
UACC-257 melanoma = test system: UACC-257 melanoma
HOP-92 NSCLC = test system: HOP-92 NSCLC

| Compound | GI50 (CAKI-1 renal) [µM] | TGI (CAKI-1 renal) [µM] | GI50 (COLO 205 colon) [µM] | TGI (COLO 205 colon) [µM] | GI50 (HOP-62 NSCLC) [µM] | TGI (HOP-62 NSCLC) [µM] | GI50 (IGROV1 ovarian) [µM] | TGI (IGROV1 ovarian) [µM] | GI50 (MALME-3M melanoma) [µM] | TGI (MALME-3M melanoma) [µM] | GI50 (OVCAR-5 ovarian) [µM] | TGI (OVCAR-5 ovarian) [µM] | GI50 (SN12C renal) [µM] | TGI (SN12C renal) [µM] | GI50 (TK-10 renal) [µM] | TGI (TK-10 renal) [µM] | GI50 (UACC-257 melanoma) [µM] | TGI (UACC-257 melanoma) [µM] | TGI (HOP-92 NSCLC) [µM] | GI50 (HOP-92 NSCLC) [µM] |
| --- | --- | --- | --- | --- | --- | --- | --- | --- | --- | --- | --- | --- | --- | --- | --- | --- | --- | --- | --- | --- |
| O=C(NCCCCN1CCOCC1)c1cc2ccccc2o1 | > 100 | > 100 | > 100 | > 100 | > 100 | > 100 | > 100 | > 100 | > 100 | > 100 | > 100 | > 100 | > 100 | > 100 | > 100 | > 100 | > 100 | > 100 | – | – |
| COc1ccc(C(c2ccccc2)(c2ccc(OC)cc2)N2C(=O)NC3C(CCCCC(=O)NCCCCCCOP(OCCC#N)N(C(C)C)C(C)C)SCC32)cc1 (stereo not given) | – | – | – | 40.7 | – | 36.6 | – | 40.3 | – | 33.5 | – | – | – | – | – | 35.7 | – | 42.6 | 35 | – |
| CC(C)N(C(=O)C12C3C4C5(C#N)C3C1(C#N)C5C42C#N)C(C)C (stereo not given) | – | – | – | > 100 | – | > 100 | – | > 100 | – | > 100 | – | > 100 | – | > 100 | – | > 100 | – | > 100 | – | – |
| COc1cc(/C=C2\CC3C4CC=C5C[C@@H](OC(C)=O)CC[C@]5(C)C4CC[C@]3(C)C2=O)ccc1OCCN1CCCCC1 (stereo not given in full) | 2.65 | 7.64 | 3.14 | 30.4 | 12.1 | 25.9 | – | – | 1.66 | 3.35 | 3.83 | 7.42 | – | – | 3.4 | 12.3 | 3.85 | > 100 | – | – |
| CC1=N/C(=C/c2ccc3c(c2)OCO3)C(=O)O1 | – | > 100 | – | > 100 | – | – | – | > 100 | – | > 100 | – | > 100 | – | > 100 | – | > 100 | – | > 100 | > 100 | – |
| NNC(=O)C(=O)N/N=C(\CCCC(=O)Nc1ccc(Cl)cc1)CC(=O)c1ccc(F)cc1 | – | – | – | > 100 | – | > 100 | – | > 100 | – | > 100 | – | > 100 | – | > 100 | – | > 100 | – | > 100 | > 100 | – |
| C=CCC1(CN(C)C)CC/C(=C\c2ccc(OC)cc2)C1=O (stereo not given) | – | – | – | > 100 | – | > 100 | – | > 100 | – | > 100 | – | > 100 | – | > 100 | – | > 100 | – | > 100 | > 100 | – |
| O=C1NC(=C(Cl)Cl)/C(=N/S(=O)(=O)N2CCCCC2)N1 | 1.77 | 3.26 | 2.01 | 3.88 | 2.92 | 9.07 | – | – | 1.82 | 3.49 | 1.87 | 3.63 | 1.7 | 3.14 | 4.82 | > 100 | 2.43 | 7.07 | 3.33 | 1.75 |
| O=C(O)CSc1n[nH]c(=O)[nH]c1=O | – | > 100 | – | > 100 | – | > 100 | – | > 100 | – | > 100 | – | > 100 | – | > 100 | – | – | – | – | – | – |
| O=C(CSc1nc2c(n1Nc1ccccc1)-c1ccccc1SC2)Nc1nc(-c2ccc(Cl)cc2)cs1 | – | – | 4.1 | > 100 | 14 | 34 | 12.5 | 78.2 | – | – | > 100 | > 100 | > 100 | > 100 | 22.9 | 58.9 | > 100 | > 100 | 71 | 11.6 |

Source: PubChem BioAssay (NCI)
